According to the supplement of paper PMC4932681:

How the values were obtained:
MCF-7 Tam1 [1] = experiment: drug sensitivity score (DSS) (DSS (dimensionless)); higher = more sensitive; extreme values may be limits of the assay; conditions: 4-OH-tamoxifen in medium 1 µM; 72 h
Method in brief: (§1)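 Breast cancer cell lines and their resistant derivatives were seeded into 384-well plates containing library drugs at five concentrations across a 10 000-fold range, with resistant lines kept in medium with 1 μM of the selecting drug. After 72 h at 37 °C, CellTiter-Glo viability was read on a PHERAstar and normalised to vehicle-only and positive controls. Logistic dose–response fits in the Breeze pipeline gave drug sensitivity score, relative IC50 (curve midpoint) and top-dose inhibition.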

BT-474 Tam1 [2] = experiment: as above; conditions: 4-OH-tamoxifen in medium 1 µM; 72 h
Method in brief: as §1

MCF-7 [3] = experiment: as above; conditions: 72 h
Method in brief: as §1

ZR-75-1 [4] = experiment: as above; conditions: 72 h
Method in brief: as §1

T-47D Tam2 [5] = experiment: as above; conditions: 4-OH-tamoxifen in medium 1 µM; 72 h
Method in brief: as §1

ZR-75-1 Tam1 [6] = experiment: as above; conditions: 4-OH-tamoxifen in medium 1 µM; 72 h
Method in brief: as §1

T-47D Tam1 [7] = experiment: as above; conditions: 4-OH-tamoxifen in medium 1 µM; 72 h
Method in brief: as §1

BT-474 [8] = experiment: as above; conditions: 72 h
Method in brief: as §1

BT-474 Tam2 [9] = experiment: as above; conditions: 4-OH-tamoxifen in medium 1 µM; 72 h
Method in brief: as §1

ZR-75-1 Tam2 [10] = experiment: as above; conditions: 4-OH-tamoxifen in medium 1 µM; 72 h
Method in brief: as §1

T-47D [11] = experiment: as above; conditions: 72 h
Method in brief: as §1

MCF-7 Tam1 [12] = experiment: relative IC50 (midpoint of fitted logistic curve, plateau may be below 50% inhibition; CellTiter-Glo viability); higher = less potent; conditions: 4-OH-tamoxifen in medium 1 µM; 72 h
Method in brief: as §1

BT-474 Tam1 [13] = experiment: as above; conditions: 4-OH-tamoxifen in medium 1 µM; 72 h
Method in brief: as §1

MCF-7 [14] = experiment: as above; conditions: 72 h
Method in brief: as §1

ZR-75-1 [15] = experiment: as above; conditions: 72 h
Method in brief: as §1

T-47D Tam2 [16] = experiment: as above; conditions: 4-OH-tamoxifen in medium 1 µM; 72 h
Method in brief: as §1

ZR-75-1 Tam1 [17] = experiment: as above; conditions: 4-OH-tamoxifen in medium 1 µM; 72 h
Method in brief: as §1

T-47D Tam1 [18] = experiment: as above; conditions: 4-OH-tamoxifen in medium 1 µM; 72 h
Method in brief: as §1

BT-474 [19] = experiment: as above; conditions: 72 h
Method in brief: as §1

BT-474 Tam2 [20] = experiment: as above; conditions: 4-OH-tamoxifen in medium 1 µM; 72 h
Method in brief: as §1

ZR-75-1 Tam2 [21] = experiment: as above; conditions: 4-OH-tamoxifen in medium 1 µM; 72 h
Method in brief: as §1

T-47D [22] = experiment: as above; conditions: 72 h
Method in brief: as §1

| Compound | relative IC50 (MCF-7 Tam1 [12]) | relative IC50 (BT-474 Tam1 [13]) | relative IC50 (MCF-7 [14]; 4-OH-tamoxifen in medium 0 µM) | relative IC50 (MCF-7 [14]; 4-OH-tamoxifen in medium 1 µM) | relative IC50 (T-47D Tam2 [16]) | relative IC50 (T-47D Tam1 [18]) | relative IC50 (BT-474 [19]; 4-OH-tamoxifen in medium 0 µM) | relative IC50 (BT-474 [19]; 4-OH-tamoxifen in medium 1 µM) | relative IC50 (BT-474 Tam2 [20]) | relative IC50 (T-47D [22]; 4-OH-tamoxifen in medium 0 µM) | relative IC50 (T-47D [22]; 4-OH-tamoxifen in medium 1 µM) | drug sensitivity score (MCF-7 Tam1 [1]) | drug sensitivity score (BT-474 Tam1 [2]) | drug sensitivity score (MCF-7 [3]; 4-OH-tamoxifen in medium 0 µM) | drug sensitivity score (MCF-7 [3]; 4-OH-tamoxifen in medium 1 µM) | drug sensitivity score (ZR-75-1 [4]; 4-OH-tamoxifen in medium 0 µM) | drug sensitivity score (ZR-75-1 [4]; 4-OH-tamoxifen in medium 1 µM) | drug sensitivity score (T-47D Tam2 [5]) | drug sensitivity score (ZR-75-1 Tam1 [6]) | drug sensitivity score (T-47D Tam1 [7]) | drug sensitivity score (BT-474 [8]; 4-OH-tamoxifen in medium 0 µM) | drug sensitivity score (BT-474 [8]; 4-OH-tamoxifen in medium 1 µM) | drug sensitivity score (BT-474 Tam2 [9]) | drug sensitivity score (ZR-75-1 Tam2 [10]) | drug sensitivity score (T-47D [11]; 4-OH-tamoxifen in medium 0 µM) | drug sensitivity score (T-47D [11]; 4-OH-tamoxifen in medium 1 µM) | relative IC50 (ZR-75-1 [15]; 4-OH-tamoxifen in medium 0 µM) | relative IC50 (ZR-75-1 [15]; 4-OH-tamoxifen in medium 1 µM) | relative IC50 (ZR-75-1 Tam1 [17]) | relative IC50 (ZR-75-1 Tam2 [21]) |
| --- | --- | --- | --- | --- | --- | --- | --- | --- | --- | --- | --- | --- | --- | --- | --- | --- | --- | --- | --- | --- | --- | --- | --- | --- | --- | --- | --- | --- | --- | --- |
| C=CCNC1=C2C[C@@H](C)C[C@H](OC)[C@H](O)[C@@H](C)/C=C(\C)[C@H](OC(N)=O)[C@@H](OC)/C=C\C=C(/C)C(=O)NC(=CC1=O)C2=O [Tanespimycin  (17-AAG)] | 444 nM | 27.4 nM | 61.5 nM | 65.6 nM | 2180 nM | 1640 nM | 42.2 nM | 42.4 nM | 38.6 nM | 1550 nM | 939 nM | 4.15 | 24 | 19.2 | 13.9 | 8.45 | 9.57 | 3.1 | 7.79 | 3.79 | 17.1 | 24 | 23.1 | 11.6 | 5.17 | 5.11 | 74.5 nM | 141 nM | 284 nM | 118 nM |
| O=C1CCC(N2C(=O)c3ccccc3C2=O)C(=O)N1 (stereo unspecified) [Thalidomide] | > 10000 nM | > 10000 nM | > 10000 nM | > 10000 nM | > 10000 nM | > 10000 nM | > 10000 nM | > 10000 nM | > 10000 nM | > 10000 nM | – | 0 | 0 | 0 | 0 | 0 | 0.0754 | 0 | 0 | 0 | 0 | 0 | 0 | 0 | 0 | 0 | > 10000 nM | – | > 10000 nM | > 10000 nM |
| Oc1ncc(N(CCCl)CCCl)c(O)n1 [Uracil mustard] | > 10000 nM | > 10000 nM | > 10000 nM | – | > 10000 nM | > 10000 nM | > 10000 nM | > 10000 nM | > 10000 nM | > 10000 nM | > 10000 nM | 0 | 0 | 0 | 0.208 | 0 | 0 | 0 | 0 | 0 | 0 | 0 | 0 | 0 | 0 | 0 | > 10000 nM | > 10000 nM | > 10000 nM | > 10000 nM |
| CCc1c(C(=O)C(N)=O)c2c(OCC(=O)O)cccc2n1Cc1ccccc1 [Varespladib] | > 10000 nM | > 10000 nM | – | > 10000 nM | > 10000 nM | > 10000 nM | > 10000 nM | > 10000 nM | > 10000 nM | > 10000 nM | > 10000 nM | 0 | 0 | 0.0495 | 0 | 0 | 0 | 0 | 0 | 0 | 0 | 0 | 0 | 0 | 0 | 0 | > 10000 nM | > 10000 nM | > 10000 nM | > 10000 nM |
| C[C@]1(c2nc3c(C(N)=O)cccc3[nH]2)CCCN1 [Veliparib  (ABT-888)] | > 10000 nM | > 10000 nM | > 10000 nM | > 10000 nM | > 10000 nM | > 10000 nM | > 10000 nM | > 10000 nM | > 10000 nM | > 10000 nM | > 10000 nM | 0 | 0 | 0 | 0 | 0 | 0 | 0 | 0 | 0 | 0 | 0 | 0 | 0 | 0 | 0 | > 10000 nM | > 10000 nM | > 10000 nM | > 10000 nM |
| O=P(O)(O)C(O)(Cn1ccnc1)P(=O)(O)O [Zoledronic acid] | > 10000 nM | > 10000 nM | > 10000 nM | > 10000 nM | > 10000 nM | > 10000 nM | > 10000 nM | > 10000 nM | > 10000 nM | > 10000 nM | > 10000 nM | 0 | 0 | 0 | 0 | 0 | 0 | 0 | 0 | 0 | 0 | 0 | 0 | 0 | 0 | 0 | > 10000 nM | > 10000 nM | > 10000 nM | > 10000 nM |

Now from value to compound, other results behind:

| relative IC50 (MCF-7 Tam1 [12]) | relative IC50 (BT-474 Tam1 [13]) | relative IC50 (MCF-7 [14]; 4-OH-tamoxifen in medium 0 µM) | relative IC50 (MCF-7 [14]; 4-OH-tamoxifen in medium 1 µM) | relative IC50 (T-47D Tam2 [16]) | relative IC50 (T-47D Tam1 [18]) | relative IC50 (BT-474 [19]; 4-OH-tamoxifen in medium 0 µM) | relative IC50 (BT-474 [19]; 4-OH-tamoxifen in medium 1 µM) | relative IC50 (BT-474 Tam2 [20]) | relative IC50 (T-47D [22]; 4-OH-tamoxifen in medium 0 µM) | relative IC50 (T-47D [22]; 4-OH-tamoxifen in medium 1 µM) | Compound | drug sensitivity score (MCF-7 Tam1 [1]) | drug sensitivity score (BT-474 Tam1 [2]) | drug sensitivity score (MCF-7 [3]; 4-OH-tamoxifen in medium 0 µM) | drug sensitivity score (MCF-7 [3]; 4-OH-tamoxifen in medium 1 µM) | drug sensitivity score (ZR-75-1 [4]; 4-OH-tamoxifen in medium 0 µM) | drug sensitivity score (ZR-75-1 [4]; 4-OH-tamoxifen in medium 1 µM) | drug sensitivity score (T-47D Tam2 [5]) | drug sensitivity score (ZR-75-1 Tam1 [6]) | drug sensitivity score (T-47D Tam1 [7]) | drug sensitivity score (BT-474 [8]; 4-OH-tamoxifen in medium 0 µM) | drug sensitivity score (BT-474 [8]; 4-OH-tamoxifen in medium 1 µM) | drug sensitivity score (BT-474 Tam2 [9]) | drug sensitivity score (ZR-75-1 Tam2 [10]) | drug sensitivity score (T-47D [11]; 4-OH-tamoxifen in medium 0 µM) | drug sensitivity score (T-47D [11]; 4-OH-tamoxifen in medium 1 µM) | relative IC50 (ZR-75-1 [15]; 4-OH-tamoxifen in medium 0 µM) | relative IC50 (ZR-75-1 [15]; 4-OH-tamoxifen in medium 1 µM) | relative IC50 (ZR-75-1 Tam1 [17]) | relative IC50 (ZR-75-1 Tam2 [21]) |
| --- | --- | --- | --- | --- | --- | --- | --- | --- | --- | --- | --- | --- | --- | --- | --- | --- | --- | --- | --- | --- | --- | --- | --- | --- | --- | --- | --- | --- | --- | --- |
| 486 nM | 588 nM | 198 nM | 355 nM | 855 nM | 736 nM | 467 nM | 525 nM | 409 nM | 598 nM | 864 nM | CN[C@@H]1C[C@H]2O[C@@](C)([C@@H]1OC)n1c3ccccc3c3c4c(c5c6ccccc6n2c5c31)C(=O)N[C@H]4O [UCN-01] | 14.3 | 13.4 | 17.1 | 15.8 | 9.37 | 6.62 | 8.25 | 8.97 | 10.2 | 10.8 | 13.3 | 15.6 | 9.41 | 9.64 | 8.4 | 437 nM | 1010 nM | 615 nM | 686 nM |
| 57 nM | 218 nM | 2.65 nM | 49.6 nM | 811 nM | 526 nM | 71.1 nM | 171 nM | 337 nM | 47.5 nM | 299 nM | COCC[n+]1c2c(n(Cc3cnccn3)c1C)C(=O)c1ccccc1C2=O [YM155] | 25.8 | 19.6 | 43 | 26.5 | 28.5 | 19 | 11.4 | 15.3 | 14.2 | 25.6 | 20.9 | 16.6 | 16.2 | 27.1 | 17.6 | 36.5 nM | 202 nM | 454 nM | 358 nM |
